Earlier results as cited in US6485765B1, “Lactational performance of dairy cattle” (Church & Dwight Co., Inc., priority 2000, dated 2002).

Tested on: heat stressed dairy cows
Conditions: per every 1% increase in K, potassium carbonate as source of dietary K

O=C([O-])[O-].[K+].[K+] [potassium carbonate]
increase of fat-corrected milk: 8.9 lbs/day
